According to patent US5817652A, “Hypolipidaemic condensed 1,4-thiazepines” (Glaxo Wellcome Inc., priority 1993, dated 1998):
Structures can show the parent of a compound that is named as a salt.

Tested on: rat distal ileal brush border membrane vesicles
Assay: In vitro inhibition of bile acid uptake (sodium-dependent 3H taurocholate uptake)
Assay type: biochemical
Settings: active (sodium-dependent) 3H taurocholate uptake, 30 seconds at 24° C., pH 7.4
Description: In vitro inhibition of bile acid uptake
Freshly prepared rat distal ileal brush border membrane vesicles (about […] vesicle protein) were incubated for 30 seconds at 24° C. in an incubation mixture comprising […] ^3 H taurocholate, 100 mM NaCl (or KCl) and 80 mM mannitol in 20 mM Herpes Tris pH 7.4. Each test compound was dissolved in ethanol (or water) and then diluted with incubation mixture to an ethanol concentration of not more than 1% v/v. The incubation was terminated by rapid dilution and filtration and the filter washed with an ice-cold isotonic sodium-free buffer.
The uptake of ^3 H taurocholate was measured by the radioactivity remaining on the filter and converted to pmoles/mg vesicle protein. The active, ie sodium-dependent, uptake was obtained by subtracting the passive uptake measured in 100 mM KCl from the total uptake measured in 100 mM NaCl. The active uptake for each test compound was compared with a control active uptake and the results expressed as % inhibition of bile acid uptake.

## CCC(=O)CC1(CC)CS(=O)(=O)c2cc(OC)ccc2C(c2ccccc2)N1 (mixture of isomers) [Example 5, (±)-trans-1-(3-ethyl-2,3,4,5-tetrahydro-8-methoxy-5-phenyl-1,4-benzothiazepin-3-yl)-2-butanone S,S-dioxide hydrochloride 1,1 hydrate]
0.3 μM compound
  % inhibition of bile acid uptake: 60%
1 μM compound
  % inhibition of bile acid uptake: 83%
3 μM compound
  % inhibition of bile acid uptake: 94%
10 μM compound
  % inhibition of bile acid uptake: 98%

## CCC(=O)CC1(CC)CS(=O)(=O)c2ccc(OC)cc2C(c2ccccc2)N1 (mixture of isomers) [Example 51, (±)-Trans-1-(3-Ethyl-2,3,4,5-tetrahydro-7-methoxy-5-phenyl-1,4-benzothiazepin-3-yl)-2-butanone S,S-dioxide hydrochloride]
0.3 μM compound
  % inhibition of bile acid uptake: 66%
1 μM compound
  % inhibition of bile acid uptake: 91%
3 μM compound
  % inhibition of bile acid uptake: 100%
10 μM compound
  % inhibition of bile acid uptake: 100%

## CCOCCC1(CC)CS(=O)(=O)c2ccccc2C(c2ccccc2)N1 (racemic) [Example 7, (±)-trans-3-(ethoxyethyl)-3-ethyl-2,3,4,5-tetrahydro-5-phenyl-1,4-benzothiazepine 1,1-dioxide hydrochloride hemihydrate]
10 μM compound
  % inhibition of bile acid uptake: 53%

## CCC(=O)CC1(CC)CS(=O)(=O)c2ccccc2C(c2ccccc2)N1 (mixture of isomers) [Example 4, (±)-trans-1-(3-ethyl-2,3,4,5-tetrahydro-5-phenyl-1,4-benzothiazepin-3-yl)-2-butanone S,S-dioxide]
0.3 μM compound
  % inhibition of bile acid uptake: 28%
1 μM compound
  % inhibition of bile acid uptake: 54%
3 μM compound
  % inhibition of bile acid uptake: 77%
10 μM compound
  % inhibition of bile acid uptake: 90%

## COc1ccc2c(c1)S(=O)(=O)CC1(CCCCC1)NC2c1ccccc1 (racemic) [Example 11, (±)-2,3,4,5-tetrahydro-8-methoxy-5-phenylspiro(1,4-benzothiazepine-3,1-cyclohexane) 1,1-dioxide]
0.3 μM compound
  % inhibition of bile acid uptake: 15%
1 μM compound
  % inhibition of bile acid uptake: 33%
3 μM compound
  % inhibition of bile acid uptake: 36%
10 μM compound
  % inhibition of bile acid uptake: 64%

## O=S1(=O)CC2(CCCCC2)NC(c2ccccc2)c2ccccc21 (racemic) [Example 20, (±)-2,3,4,5-Tetrahydro-5-phenylspiro(1,4-benzothiazepine-3,1'-cyclohexane) 1,1-dioxide]
10 μM compound
  % inhibition of bile acid uptake: 27%

## CCC1(/C=C/C(C)=O)CS(=O)(=O)c2ccccc2C(c2ccccc2)N1 (mixture of isomers) [Example 10, (±)-trans-(E)-4-(3-ethyl-2,3,4,5-tetrahydro-5-phenyl-1,4-benzothiazepin-3-yl)-3-buten-2-one 1,1-dioxide]
10 μM compound
  % inhibition of bile acid uptake: 69%
